The source of these data is PMC10878532, “Sperm Toolbox—A selection of small molecules to study human spermatozoa” (PLOS ONE, 2024).

Series [1] relates to LRRK2 kinase. Conditions: cited from earlier work.
The test system of series [2] is human spermatozoa. Put plainly: Motility assay (non-capacitating conditions). In kind it is cell-based. The procedure: (§1) To compare the effects of STB compounds on specific sperm functions (e.g. motility, acrosome reaction, viability), we screened them in multiple phenotypic functional assays described below. Each sperm function assay has been repeated in multiple donor pools (see Materials and methods), where each pool consists of cells donated from at least 3 different donors to address donor to donor variability. Each compound has been tested at two concentrations, 10 and 30 μM, and normalized to vehicle controls (DMSO, see Materials and methods). We have modified our assays from the previously published workflow by increasing incubation time and introducing conditions that support capacitation, which is a sperm maturation process required for fertilization. These changes expand the range of targets that we can explore in our assays. Our live-sperm-based high-throughput motility assays use an automated microscope to record short timelapse movies. These assays can be run in different protocols (S1 Fig). […] In this protocol, cells are incubated with compounds for 10 min prior to the first motility read-out. A second and third motility read-out were performed after 3h and 6h incubation. The second protocol, denoted ‘capacitation assay’, utilises conditions that support capacitation (S1 Fig). In this protocol, cells are kept in conditions supporting capacitation for 30 minutes prior to 30 minutes incubation with compound, followed by motility read-out. Both protocols allow sperm motility to be measured (0.5 sec time-lapse movies allow tracking of cells and calculation of sperm kinematics). In addition, the capacitation assay also scores hyperactivation (i.e. distinct movement patterns concomitant with capacitation which are crucial for fertilization) (Fig 2A).
Cells were rested for 1 h post density gradient centrifugation. 10 μL assay buffer was dispensed into assay ready plates, plates were put onto a shaker instrument for 30 seconds using 1,000 rpm, followed by a short pulse centrifugation. Plates were incubated for 15–30 mins at 37°C prior to addition of 10 μL of pooled cells (at 1 M/mL concentration). Plates were then incubated in a Yokogawa CV7000 microscope set at 37°C for 10 min prior to imaging. Imaging a 384-well plate requires ≤ 20 min using the following settings: 2 positions per well, 0.5 sec timelapse movies (3x binning; 11 ms exposure time, 22 ms interval time, […]). A second and a third timepoint was recorded after 3 h, and 6 h incubation at 37°C. Data has been processed as described in [8]. Assay results are from 5 separate donor pools.
(§2) For cell painting imaging data, plates of images were imported into OMERO [70]. Cell segmentation and feature extraction were performed using CellProfiler 3 [71] and using instructions from to normalize data. Timelapse data of motility assays was processed as previously described. Acrosome flow cytometry data was processed using NovoCyte Express (PerkinElmer), to gate out background debris, select for single cells and calculate percentage values of acrosome positive events. Sperm viability flow cytometry data was processed using iQue Forecyt (Satorius) to gate out background debris, select for single cells and calculate percentage values of propidium iodide positive events. For all sperm functional assays, data was normalized to DMSO control wells. Each plate had 16 DMSO wells. A median value of all 16 wells was used to calculated percentage change (pct_ch = ((value / DMSO_median) -1) * 100). For sperm viability we calculated fold-change (fc = 1 − (value / DMSO_median)). For each compound we calculated a p-value using a Welch’s t-test implemented in scipy (scipy.stats.ttest_ind) comparing a compounds effect to DMSO controls.

Series [3] deals with spermatozoa. On the set-up: method as in per compound as listed in column References of Table 1. To be noted: summaries of reported effects; ref per compound as listed in Table 1; cited from earlier work.
Series [4] relates to Testis-Specific Serine/Threonine Kinase 2 (TSSK2). On the set-up: method as in PMID 28952188. To be noted: described as; cited from earlier work.
Series [5] concerns HepG2. Put plainly: HepG2 cytotoxicity assay (resazurin based). Format: cell-based. Conditions: 70h incubation.
The test system of series [6] is human spermatozoa. Put plainly: Sperm viability assay (propidium iodide, flow cytometry). To be noted: 3h with compound. In kind it is cell-based. The procedure: In this assay, cells are incubated for 3h with compound in non-capacitating media, prior to viability assessment.
Cells were incubated with compounds for a total of 3h at 37°C. 20 min prior, propidium iodide was added (1.5 mM solution, Sigma, final dilution 1:2000). Plates were analysed using a Satorius iQue Screener with settings to allow for a sampling time of ≤30 min per 384-well plate. Gating of data has been performed using the flow cytometer software to export counts of gated populations. This assay was tested in 5 separate donor pools.
as §2
(In general: A flow cytometer gives signals particle by particle.)

In series [7] the test system is human spermatozoa. Put plainly: Acrosome assay, protocol 1 (3h incubation with compound, no agonist; flow cytometry, PNA). In kind it is cell-based. Conditions: 3h with compound, no agonist addition. As to the method: The acrosome assays utilize a high-throughput flow cytometer (S1 Fig) to score for compounds inducing the acrosome reaction, using peanut agglutinin conjugated to a fluorescent dye to label the outer acrosomal membrane. We have developed two different screening protocols, named ‘acrosome 1’ and ‘acrosome 2’ (S1 Fig). […] This addition allowed measurement of inhibition of acrosome reaction (Fig 2B).
(§3) In both experimental protocols, 20 μL of pooled cells (at 1 M/mL concentration) were capacitated for 3 h in presence of compounds at 37°C and 5% CO2. In protocol a, cells were then stained with PNA-Alexa647 (ThermoFisher, 1 mg/mL, final dilution 1:1000) and Hoechst dye for 30 min at 37°C and 5% CO2, followed by 10 min fixation at RT by adding 20 μL of 4% paraformaldehyde (Sigma) in PBS. In mode b, a cocktail of progesterone, prostaglandin A and NH4Cl was added to all compound wells and incubated for an additional 1 h at 37°C and 5% CO2 to induce acrosome reaction. This was followed by fixation and staining protocol as for mode a. In both protocols fixatives and stains were removed and cells were resuspended in PBS, using a 405 platewasher. Plates were then measured on a Novocyte Advanteon high-throughput flow cytometer. Gating of data has been performed using the flow cytometer software to export counts of gated populations. The Acrosome 1 protocol using 3h incubation with compounds was run in 7 separate donor pools. The Acrosome 2 protocol using 3h incubation with compound followed by 1h stimulation of acrosome reaction was run in 5 separate donor pools.
as §2

Series [8] concerns HeLa. As to the kind of experiment: HeLa cell painting cytotoxicity assay. Format: cell-based. Conditions: 24h compound incubation.
Method: The HeLa-based assay uses the cell painting assay [11], while the HepG2 assay utilizes a resazurin based viability read-out [64].
Cell were incubated with compounds for 24h.
• 10 μL of MitoTracker (Life Technologies, M22426, 1 mM stock in DMSO as recommended by the vendor) is added to 50 μL of media (1:2000 final dilution) • Phalloidin-Alexa594 (Life Technologies, A12381, 66 μM stock in methanol as recommended by the vendor, 1:500 final dilution) • WGA-Alexa594 (Life Technologies, W11262, 5 mg/mL stock, 1:250 final dilution) was used • DAPI (5 mg/mL stock; 1:1000 final dilution) was used to stain DNA • 20 μL of staining solution was used • PBS was used for washing steps
For cell painting imaging data, plates of images were imported into OMERO [70]. Cell segmentation and feature extraction were performed using CellProfiler 3 [71] and using instructions from [11] to normalize data.
The subject of series [9] is human spermatozoa. Put plainly: Capacitation assay (motility and hyperactivation under capacitating conditions). In kind it is cell-based. Conditions: cluster in Fig 3A; 30 min capacitation then 30 min with compound. The procedure:
as §1
Cells were capacitated for 30 min at 37°C and 5% CO2. 10 μL assay buffer was dispensed into assay ready plates, plates were put onto a shaker instrument for 30 seconds using 1,000 rpm, followed by a short pulse centrifugation. Plates were incubated for 15–30 mins at 37°C and 5% CO2 prior to addition of 10 μL of pooled cells (at 1 M/mL concentration). This was followed by a 20 min compound incubation step at 37°C and 5% CO2. Plates were then incubated in our CV7000 microscope set at 37°C and 5% CO2 for 10 min prior to imaging. […]
For cell painting imaging data, plates of images were imported into OMERO [70]. […] A median value of all 16 wells was used to calculated percentage change (pct_ch = ((value / DMSO_median) -1) * 100). For sperm viability we calculated fold-change (fc = 1 − (value / DMSO_median)). For each compound we calculated a p-value using a Welch’s t-test implemented in scipy (scipy.stats.ttest_ind) comparing a compounds effect to DMSO controls.

For series [10], the system named is human spermatozoa. As to the kind of experiment: Acrosome assay, protocol 2 (3h with compound, then 1h agonist cocktail). In kind it is cell-based. To be noted: cluster in Fig 3A; 3h with compound then agonist mix. The procedure:
The acrosome assays utilize a high-throughput flow cytometer (S1 Fig) to score for compounds inducing the acrosome reaction, using peanut agglutinin conjugated to a fluorescent dye to label the outer acrosomal membrane. We have developed two different screening protocols, named ‘acrosome 1’ and ‘acrosome 2’ (S1 Fig). Both protocols are capable of measuring induction of the acrosome reaction upon compound incubation. However, in the acrosome 2 assay, a mixture of physiological agonists of the acrosome reaction is used after cells have been incubated with compounds for 3h under conditions that support capacitation. This addition allowed measurement of inhibition of acrosome reaction (Fig 2B).
as §3
as §2, with “Sperm viability flow cytometry data was processed using iQue Forecyt (Satorius) to gate out background debris, select for single cells and calculate percentage values of propidium iodide positive events. For all sperm functional assays, data was normalized to DMSO control wells. Each plate had 16 DMSO wells.” left out

Counter-ions that a name gives are not always drawn.

Turning to `COc1cc(N2CCOCC2)ccc1Nc1ncc(F)c(Nc2ccccc2NS(C)(=O)=O)n1` [CZC 25146], the LRRK2 inhibition entry in [1] (annotated as) is “potent LRRK2 inhibitor”. In addition, in series [2], the sperm motility result is “decrease sperm motility”.
`CNS(=O)(=O)c1ccccc1Nc1nc(Nc2ccc(C3CCN(C)CC3)cc2OC)ncc1Cl` [Compound 19]: the “Published Phenotype” value in series [3] is recorded as “Blocks TSSK; similarity to brigatinib”. Also, the TSSK2 inhibition entry in series [4] is reported as “potent”. The sperm motility result in series [2] was “decrease sperm motility”.
As for `COc1cc(C(=O)N2CCC(N3CCN(C)CC3)CC2)ccc1Nc1ncc2c(n1)N(C)c1ccccc1C(=O)N2C` [LRRK2-IN-1], the “general cytotoxicity (HepG2)” value in series [5] is given as “do not show effects”. For the same compound, in [6], the “effects on sperm viability” value is “do not show effects”. For the same compound, the “acrosome reacted cells without agonist cocktail” value in series [7] is recorded as “no change”. The “general cytotoxicity (HeLa)” value in [8] is given as “do not show effects”. The hyperactive motility result in series [9] was “significantly increased”. The LRRK2 kinase inhibition result in series [1] (described as) is on record as “selective inhibitor”. The progressive motility result in series [2] (non-capacitating conditions, Fig 2) is “enhances motility”. In addition, in series [10], the “acrosome reaction (acrosome reacted cells)” value is listed as “significantly increased”.
As for `COc1cc2c(cc1OC)-c1c/c(=N\c3c(C)cc(C)cc3C)n(C)c(=O)n1CC2` [Trequinsin hydrochloride], the “general cytotoxicity (HepG2)” value in series [5] is reported as “do not show effects”. Also, the “effects on sperm viability” value in series [6] is listed as “do not show effects”. In series [3], the “Published Phenotype” value was “Increases hyperactivated sperm; increases penetration of sperm into viscous media, increases motility”. Besides, the “general cytotoxicity (HeLa)” value in [8] was “do not show effects”. Besides, the hyperactive motility entry in series [9] is reported as “significantly increased”. Besides, in series [10], the “acrosome reaction (acrosome reacted cells)” value is reported as “significantly increased”.
